Test results from PubChem BioAssay (NCI).
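1) Cells in 96-well plates. 2) Compound, 48 h, 5 concentrations. 3) Linear interpolation between surrounding doses. 4) Unreached endpoint = highest concentration. Here, GI50 denotes the concentration required for 50% inhibition of growth. TGI denotes the concentration required for complete inhibition of growth.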

Experiments:
Test in all cases: inhibition of tumour cell growth, NCI panel, 48 h
PC-3 prostate = tested on: PC-3 prostate
RPMI-8226 leukemia = tested on: RPMI-8226 leukemia
SR leukemia = tested on: SR leukemia
BT-549 breast = tested on: BT-549 breast
ACHN renal = tested on: ACHN renal
OVCAR-8 ovarian = tested on: OVCAR-8 ovarian
HCT-15 colon = tested on: HCT-15 colon
SN12C renal = tested on: SN12C renal
SK-OV-3 ovarian = tested on: SK-OV-3 ovarian
MOLT-4 leukemia = tested on: MOLT-4 leukemia
MDA-MB-231 breast = tested on: MDA-MB-231 breast
UO-31 renal = tested on: UO-31 renal
KM12 colon = tested on: KM12 colon
NCI-H23 lung = tested on: NCI-H23 lung
U251 CNS = tested on: U251 CNS
OVCAR-3 ovarian = tested on: OVCAR-3 ovarian
COLO 205 colon = tested on: COLO 205 colon
A549 NSCLC = tested on: A549 NSCLC
LOX IMVI melanoma = tested on: LOX IMVI melanoma
HOP-62 NSCLC = tested on: HOP-62 NSCLC
SNB-75 CNS = tested on: SNB-75 CNS
HT29 colon = tested on: HT29 colon
RXF 393 renal = tested on: RXF 393 renal
K-562 leukemia = tested on: K-562 leukemia
UACC-257 melanoma = tested on: UACC-257 melanoma
IGROV1 ovarian = tested on: IGROV1 ovarian
MDA-MB-435 = tested on: MDA-MB-435
EKVX NSCLC = tested on: EKVX NSCLC
SF-295 CNS = tested on: SF-295 CNS
MALME-3M melanoma = tested on: MALME-3M melanoma
TK-10 renal = tested on: TK-10 renal
SK-MEL-5 melanoma = tested on: SK-MEL-5 melanoma
SK-MEL-2 melanoma = tested on: SK-MEL-2 melanoma
HOP-92 NSCLC = tested on: HOP-92 NSCLC
SF-268 CNS = tested on: SF-268 CNS
SNB-19 CNS = tested on: SNB-19 CNS
UACC-62 melanoma = tested on: UACC-62 melanoma
OVCAR-4 ovarian = tested on: OVCAR-4 ovarian
HCT-116 colon = tested on: HCT-116 colon
T-47D breast = tested on: T-47D breast
NCI-H460 lung = tested on: NCI-H460 lung
SK-MEL-28 melanoma = tested on: SK-MEL-28 melanoma
SW-620 colon = tested on: SW-620 colon
HL-60(TB) leukemia = tested on: HL-60(TB) leukemia
786-0 renal = tested on: 786-0 renal
CAKI-1 renal = tested on: CAKI-1 renal
NCI/ADR-RES ovarian = tested on: NCI/ADR-RES ovarian
M14 melanoma = tested on: M14 melanoma

SMILES: CC(=O)C(=CN1CCN(C(=O)c2ccco2)C1=S)C(C)=O
- GI50 (PC-3 prostate): 4.83 µM
- TGI (PC-3 prostate): 46.6 µM
- GI50 (RPMI-8226 leukemia): 2740 nM
- TGI (RPMI-8226 leukemia): > 100 µM
- GI50 (SR leukemia): 2260 nM
- TGI (SR leukemia): > 100 µM
- GI50 (BT-549 breast): 14 µM
- TGI (BT-549 breast): 30.1 µM
- GI50 (ACHN renal): 2870 nM
- TGI (ACHN renal): 8.04 µM
- GI50 (OVCAR-8 ovarian): 8.15 µM
- TGI (OVCAR-8 ovarian): 45.1 µM
- GI50 (HCT-15 colon): 2160 nM
- TGI (HCT-15 colon): 5.55 µM
- GI50 (SN12C renal): 2570 nM
- TGI (SN12C renal): 7.11 µM
- GI50 (SK-OV-3 ovarian): 20 µM
- TGI (SK-OV-3 ovarian): 43.9 µM
- GI50 (MOLT-4 leukemia): 8.2 µM
- TGI (MOLT-4 leukemia): > 100 µM
- GI50 (MDA-MB-231 breast): 2620 nM
- TGI (MDA-MB-231 breast): 6.96 µM
- GI50 (UO-31 renal): 2920 nM
- TGI (UO-31 renal): 10.8 µM
- GI50 (KM12 colon): 2830 nM
- TGI (KM12 colon): 9.72 µM
- GI50 (NCI-H23 lung): 16.4 µM
- TGI (NCI-H23 lung): 31.6 µM
- GI50 (U251 CNS): 4.84 µM
- TGI (U251 CNS): 23.6 µM
- GI50 (OVCAR-3 ovarian): 11.4 µM
- TGI (OVCAR-3 ovarian): 35.9 µM
- GI50 (COLO 205 colon): 23.4 µM
- TGI (COLO 205 colon): 54.9 µM
- GI50 (A549 NSCLC): 11.2 µM
- TGI (A549 NSCLC): 32.7 µM
- GI50 (LOX IMVI melanoma): 2120 nM
- TGI (LOX IMVI melanoma): 4.62 µM
- GI50 (HOP-62 NSCLC): 22 µM
- TGI (HOP-62 NSCLC): 41.7 µM
- GI50 (SNB-75 CNS): 9.02 µM
- TGI (SNB-75 CNS): 71.4 µM
- GI50 (HT29 colon): 17.1 µM
- TGI (HT29 colon): 53.8 µM
- GI50 (RXF 393 renal): 1840 nM
- TGI (RXF 393 renal): 6.24 µM
- GI50 (K-562 leukemia): 38.4 µM
- TGI (K-562 leukemia): > 100 µM
- GI50 (UACC-257 melanoma): 2510 nM
- TGI (UACC-257 melanoma): 12.1 µM
- GI50 (IGROV1 ovarian): 3.64 µM
- TGI (IGROV1 ovarian): 17.3 µM
- GI50 (MDA-MB-435): 12.6 µM
- TGI (MDA-MB-435): 49 µM
- GI50 (EKVX NSCLC): 11.2 µM
- TGI (EKVX NSCLC): 28.6 µM
- GI50 (SF-295 CNS): 21.7 µM
- TGI (SF-295 CNS): 52.6 µM
- GI50 (MALME-3M melanoma): 20.7 µM
- TGI (MALME-3M melanoma): 47.9 µM
- GI50 (TK-10 renal): 4.19 µM
- TGI (TK-10 renal): 14.3 µM
- GI50 (SK-MEL-5 melanoma): 16.6 µM
- TGI (SK-MEL-5 melanoma): 31.5 µM
- GI50 (SK-MEL-2 melanoma): 3.34 µM
- TGI (SK-MEL-2 melanoma): 8.52 µM
- GI50 (HOP-92 NSCLC): 11.7 µM
- TGI (HOP-92 NSCLC): 46 µM
- GI50 (SF-268 CNS): 2570 nM
- TGI (SF-268 CNS): 6.72 µM
- GI50 (SNB-19 CNS): 30.1 µM
- TGI (SNB-19 CNS): 63.6 µM
- GI50 (UACC-62 melanoma): 5.52 µM
- TGI (UACC-62 melanoma): 19.1 µM
- GI50 (OVCAR-4 ovarian): 10.6 µM
- TGI (OVCAR-4 ovarian): 32.7 µM
- GI50 (HCT-116 colon): 4.05 µM
- TGI (HCT-116 colon): 13.7 µM
- GI50 (T-47D breast): 3.65 µM
- TGI (T-47D breast): 12.6 µM
- GI50 (NCI-H460 lung): 1500 nM
- TGI (NCI-H460 lung): 3.42 µM
- GI50 (SK-MEL-28 melanoma): 3.94 µM
- TGI (SK-MEL-28 melanoma): 25.8 µM
- GI50 (SW-620 colon): 14.6 µM
- TGI (SW-620 colon): 31.3 µM
- GI50 (HL-60(TB) leukemia): 5.79 µM
- TGI (HL-60(TB) leukemia): > 100 µM
- GI50 (786-0 renal): 5.34 µM
- TGI (786-0 renal): 18.8 µM
- GI50 (CAKI-1 renal): 5.19 µM
- TGI (CAKI-1 renal): 19.1 µM
- GI50 (NCI/ADR-RES ovarian): 23.2 µM
- TGI (NCI/ADR-RES ovarian): 56.6 µM
- GI50 (M14 melanoma): 4.03 µM
- TGI (M14 melanoma): 15.4 µM
